Inconclusive results and toxic doses are left out. No stated cut-off is given here; in the data, active means T/C of 150% or more; inactive means T/C below 125%. Square brackets hold non-standard residues; d marks the D form. Peptide text beside a SMILES is read from it. ξ: configuration not given here. ξV = CC(C)C(N)C(=O)O
Tested on: L1210 leukemia ip in BDF1 mice, survival T/C
Experiment: NCI In Vivo Anticancer Drug Screen. Data for tumor model L1210 Leukemia (intraperitoneal) in B6D2F1 (BDF1) mice
Details: endpoint: mean survival time, higher = longer survival
Summary of the method: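 Tumor cells were implanted, animals were treated, and survival was followed. The result divides the treated measurement by the vehicle-control measurement.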

[1] = dose: 100.0 mg/kg/injection, schedule: Q04DX002 (ip), vehicle: saline
[2] = dose: 100.0 mg/kg/injection, schedule: Q04DX003 (ip), vehicle: saline
[3] = dose: 200.0 mg/kg/injection, schedule: Q04DX002 (ip), vehicle: saline
[4] = dose: 200.0 mg/kg/injection, schedule: Q04DX003 (ip), vehicle: saline
[5] = dose: 400.0 mg/kg/injection, schedule: Q04DX003 (ip), vehicle: saline
[6] = dose: 25.0 mg/kg/injection, schedule: Q04DX003 (ip), vehicle: saline
[7] = dose: 50.0 mg/kg/injection, schedule: Q04DX003 (ip), vehicle: saline
[8] = dose: 75.0 mg/kg/injection, schedule: Q01DX001 (ip), vehicle: saline

Measured: T/C

CC(C)C(NC(=O)CN)C(=O)O (configuration not stated) (H-Gly-[ξV]-OH)
inactive: dose: 50.0 mg/kg/injection, schedule: Q04DX002 (ip), vehicle: saline 107 % of control | dose: 100.0 mg/kg/injection, schedule: Q01DX009 (ip), vehicle: saline 98 % of control | [1] 110 % of control | [2] 97 % of control | dose: 200.0 mg/kg/injection, schedule: Q01DX009 (ip), vehicle: saline 111 % of control | [3] 103 % of control | [4] 124 % of control | dose: 400.0 mg/kg/injection, schedule: Q01DX009 (ip), vehicle: saline 112 % of control | [5] 97 % of control

Clc1ccc(Cl)c(N=Cc2ccc3c(c2)OCO3)c1
inactive: [2] 92 % of control | [4] 95 % of control | [5] 92 % of control

CC1(C)CN1C1=C(Cl)C(=O)C(N2CC2(C)C)=C(Cl)C1=O
inactive: dose: 1.56 mg/kg/injection, schedule: Q04DX003 (ip), vehicle: saline 92 % of control | dose: 3.12 mg/kg/injection, schedule: Q04DX003 (ip), vehicle: saline 96 % of control | dose: 6.25 mg/kg/injection, schedule: Q04DX003 (ip), vehicle: saline 113 % of control | dose: 12.5 mg/kg/injection, schedule: Q04DX003 (ip), vehicle: saline 101 % of control | [6] 96 % of control | [7] 92 % of control | dose: 75.0 mg/kg/injection, schedule: Q04DX003 (ip), vehicle: saline 104 % of control | dose: 115.0 mg/kg/injection, schedule: Q04DX003 (ip), vehicle: saline 104 % of control | dose: 170.0 mg/kg/injection, schedule: Q04DX003 (ip), vehicle: saline 108 % of control

CCCC(CCC)CCCCC(CCC)CCC
inactive: [8] 96 % of control | dose: 150.0 mg/kg/injection, schedule: Q01DX001 (ip), vehicle: saline 96 % of control | dose: 300.0 mg/kg/injection, schedule: Q01DX001 (ip), vehicle: saline 94 % of control

Cc1cc(OC(=O)NC2CCCCC2)cc(C)c1Cl
inactive: dose: 100.0 mg/kg/injection, schedule: Q01DX009 (ip), vehicle: Klucel (hydroxypropylcellulose) (HPC) 95 % of control | dose: 200.0 mg/kg/injection, schedule: Q01DX009 (ip), vehicle: Klucel (hydroxypropylcellulose) (HPC) 95 % of control | dose: 400.0 mg/kg/injection, schedule: Q01DX009 (ip), vehicle: Klucel (hydroxypropylcellulose) (HPC) 94 % of control

CC(=O)OC(c1ccccc1)C(C)C (configuration not stated)
inactive: [1] 107 % of control | [3] 96 % of control | dose: 400.0 mg/kg/injection, schedule: Q04DX002 (ip), vehicle: saline 103 % of control

Cc1ccc(S(=O)(=O)N(N)C(=O)c2ccccc2)cc1
inactive: [8] 86 % of control

CSc1cnnc2ccccc12
inactive: dose: 25.0 mg/kg/injection, schedule: Q01DX009 (ip), vehicle: Klucel (hydroxypropylcellulose) (HPC) 110 % of control | dose: 50.0 mg/kg/injection, schedule: Q01DX009 (ip), vehicle: Klucel (hydroxypropylcellulose) (HPC) 115 % of control

CC1CC2(C)C(CC1=O)CC(C)C1C2CCC2(C)C1CCC2(C)O (configuration not stated)
inactive: dose: 100.0 mg/kg/injection, schedule: Q01DX009 (ip), vehicle: saline with Tween-80 90 % of control | dose: 200.0 mg/kg/injection, schedule: Q01DX009 (ip), vehicle: saline with Tween-80 90 % of control

CN(C)CCCC1(C#N)c2ccccc2CCc2ccccc21
inactive: dose: 6.25 mg/kg/injection, schedule: Q01DX009 (ip), vehicle: saline 102 % of control | dose: 12.5 mg/kg/injection, schedule: Q01DX009 (ip), vehicle: saline 105 % of control | dose: 25.0 mg/kg/injection, schedule: Q01DX009 (ip), vehicle: saline 103 % of control | [6] 100 % of control | dose: 50.0 mg/kg/injection, schedule: Q01DX009 (ip), vehicle: saline 113 % of control | [7] 100 % of control | [2] 102 % of control

Source: PubChem BioAssay AID248 (DTP/NCI, 2004)
